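Protocol summary: plate cells (96-well), add compound at 5 concentrations, incubate 48 h, interpolate endpoints linearly. TGI: total growth inhibition.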
Tests used:
Assay in all cases: inhibition of tumour cell growth, NCI panel, 48 h
[1] = tested on: SNB-75 CNS
[2] = tested on: DU-145 prostate
[3] = tested on: U251 CNS
[4] = tested on: HOP-92 NSCLC
[5] = tested on: SR leukemia
[6] = tested on: PC-3 prostate
[7] = tested on: MOLT-4 leukemia
[8] = tested on: MDA-N
[9] = tested on: NCI/ADR-RES ovarian
[10] = tested on: HCC-2998 colon
[11] = tested on: HT29 colon
[12] = tested on: MALME-3M melanoma
[13] = tested on: CAKI-1 renal
[14] = tested on: HCT-15 colon
[15] = tested on: IGROV1 ovarian
[16] = tested on: NCI-H23 lung
[17] = tested on: OVCAR-5 ovarian
[18] = tested on: HS 578T breast

SMILES	TGI [1]	TGI [2]	TGI [3]	TGI [4]	TGI [5]	TGI [6]	TGI [7]	TGI [8]	TGI [9]	TGI [10]	TGI [11]	TGI [12]	TGI [13]	TGI [14]	TGI [15]	TGI [16]	TGI [17]	TGI [18]
COC12OC3CC4(C)C(=CC3OC(OC(C)C1O)C2O)CCC1C4CCC2(C)C(c3ccc(=O)oc3)CCC12O (stereo not drawn)	0.00571 µM	0.00209 µM	0.00277 µM	0.0347 µM	0.00291 µM	0.00214 µM	< 0.001 µM	0.00434 µM	0.00258 µM	0.00945 µM	0.00277 µM	0.00391 µM	0.00849 µM	0.00553 µM	0.00389 µM	0.00177 µM	0.00327 µM	
Cn1c(N=[N+]=[N-])cc(=O)n(C)c1=O			> 100 µM	> 100 µM	> 100 µM	> 100 µM	> 100 µM	> 100 µM	> 100 µM	> 100 µM	> 100 µM	> 100 µM	> 100 µM	> 100 µM	> 100 µM	> 100 µM	> 100 µM	> 100 µM
COc1cc(/C=c2/c3ccccc3n3c2cc(-c2ccccc2)[n+]3C)cc(OC)c1OC	15.2 µM	18.4 µM	13.6 µM	12.3 µM		14.6 µM	> 64.9 µM	34.6 µM	> 100 µM	19 µM	11.4 µM	5.67 µM	11.8 µM	18.5 µM	23 µM	14.8 µM	21.4 µM	
Cc1cc(C)c2c(=N)c3ccccc3n(CCCCCCn3c4ccccc4c(=N)c4c(C)cc(C)nc43)c2n1	1.43 µM	3.13 µM	0.387 µM	2.94 µM		2.81 µM				0.323 µM	1.68 µM	2.68 µM	2.52 µM	0.343 µM	2.64 µM	2.44 µM	3.49 µM	
CN(C)CCCNc1cnc2cc3ccccc3cc2n1	70.6 µM	> 100 µM	> 100 µM	95.8 µM	> 100 µM	45.6 µM	81.7 µM	> 100 µM		35.1 µM	30.5 µM	44.5 µM	74.4 µM	56 µM	31.8 µM	> 100 µM	81.9 µM	> 100 µM
O=C1C2=C(CCCCC2)C2CCCCC12O (stereo not drawn)	> 100 µM		> 100 µM	> 100 µM	> 100 µM		> 100 µM			> 100 µM	> 100 µM	> 100 µM			> 100 µM	> 100 µM		
COC(=O)[C@@]12OC[C@]34C([C@@H](O)C1O)[C@@]1(C)CC(=O)C(O)=C(C)C1C[C@H]3OC(=O)[C@H](OC(=O)/C=C(/c1ccccc1)C(F)(F)F)[C@H]42 (stereo partly drawn)	18.6 µM		> 25 µM	17.1 µM	2.28 µM		13.8 µM			8.04 µM	15 µM	5.71 µM	> 25 µM	> 25 µM	11.5 µM	6.73 µM	> 25 µM	
COc1ccc(CCNC(=O)CCCCCO)cc1OC	> 100 µM	> 100 µM	> 100 µM	> 100 µM	> 100 µM	> 100 µM	> 100 µM		> 100 µM	> 100 µM	> 100 µM		> 100 µM	> 100 µM	> 100 µM	> 100 µM	> 100 µM	> 100 µM
CNc1ncnc2c1nnn2C	> 100 µM	> 100 µM	> 100 µM	> 100 µM		> 100 µM	> 100 µM	> 100 µM	> 100 µM	> 100 µM	> 100 µM	> 100 µM	> 100 µM	> 100 µM	> 100 µM	> 100 µM		
Cc1ccc(C(=O)C2=CN=C3C(=O)N(c4ccccc4)N(C)C3(C)C2=N)cc1 (stereo not drawn)	> 100 µM	> 100 µM	> 100 µM	> 100 µM	> 100 µM	> 100 µM	> 100 µM	> 100 µM	> 100 µM	> 100 µM		> 100 µM	> 100 µM	> 100 µM	> 100 µM	> 100 µM	> 100 µM	
N#Cc1ccc(Nc2cnc3ccc(N)cc3n2)cc1	> 100 µM		> 100 µM	> 100 µM	> 100 µM		> 100 µM			> 100 µM	> 100 µM	> 100 µM	> 100 µM	> 100 µM		> 100 µM	> 100 µM	
CC(C)N1CCC2(CC1)NNc1ncccc1-n1cccc12	> 100 µM		> 100 µM				> 100 µM			> 100 µM	> 100 µM	> 100 µM	> 100 µM			> 100 µM	> 100 µM	
O=C(NN1C(=O)CSC1c1ccco1)c1ccncc1 (stereo not drawn)		> 100 µM	> 100 µM	> 100 µM		> 100 µM	> 100 µM	> 100 µM	> 100 µM	> 100 µM	> 100 µM	> 100 µM	> 100 µM	> 100 µM	> 100 µM	> 100 µM	> 100 µM	
CC1C2CC(CC2N)C1(C)C (stereo not drawn)	> 100 µM	> 100 µM	> 100 µM	> 100 µM	> 100 µM	> 100 µM	> 100 µM	> 100 µM		> 100 µM	> 100 µM	> 100 µM	> 100 µM		> 100 µM	> 100 µM	> 100 µM	> 100 µM
COc1c(-c2cccs2)oc2c(CC(=O)O)cccc2c1=O		> 100 µM	> 100 µM		> 100 µM	> 100 µM	> 100 µM	> 100 µM		> 100 µM		> 100 µM	> 100 µM		> 100 µM	> 100 µM	> 100 µM	

From PubChem BioAssay (NCI)
